Experimental data: patent US6489475B2, “Method of producing heterocyclic derivatives” (Sankyo Company, Limited, priority 1994, dated 2002)
Marks after values point to notes of the source that are not given here.

Legend:
LDL = LDL peroxidation inhibitory effect (copper sulfate, malondialdehyde by thiobarbituric acid method); assay type: biochemical, rabbit; settings: concentration 10^-5M; 37°C, 24 hours; malondialdehyde production inhibitory ratio
Description: LDL Peroxidation Inhibitory Effect
Male Japanese white rabbits weighing 2-2.5 kg were bred on 100 g per day of a high cholesterol feed [added with cholesterol (1%), Clea Japan, Inc.] for 4 weeks. The blood was taken from carotid and plasma was obtained. Then, LDL was fractionated from the plasma by ultracentrifugation, dialyzed for one day and preserved at 4° C. LDL (400 μg) and aqueous copper sulfate solution (final concentration 5 μM) were added to bufferized Ham F-10 medium (2 ml, GIBCO, USA). DMSO or a solution (20 μl) of test compound dissolved in DMSO was added and the mixture was incubated at 37° C. for 24 hours. After the completion of the incubation, LDL peroxide in medium was allowed to develop color by thiobarbituric acid method and assayed as malondialdehyde. The activity of the test compound was expressed as malondialdehyde production inhibitory ratio (%), namely, the proportion of inhibition of production of malondialdehyde as compared to control.

Male Wister rats = assay: Serum total cholesterol reducing effect in rats on high cholesterol feed; assay type: in vivo; settings: oral, once a day for 3 days, rat
Description: Serum Total Cholesterol Reducing Effect
Male Wister rats weighing 180-200 g were bred under free access to a high cholesterol feed [added with cholesterol (1%), cholic acid (0.5%) and coconut oil (10%), Clea Japan, Inc.] for 3 days, during which period a test compound (10-100 mg/kg) suspended in 5% gum arabic solution was forcibly administered once a day orally for 3 days. Only 5% gum arabic solution was administered to control animals. After final administration, the test animals were fasted for 5 hours and the blood was taken. The serum total cholesterol level was determined using a commercially available assay kit (cholesterol-E-Test Wako, Wako Pure Chemical Industries, Ltd.). The activity of the test compound was expressed as a proportion (%) of reduction of serum total cholesterol level, namely, the proportion of reduction of serum total cholesterol as compared to control.

ACAT = ACAT inhibitory activity (small intestine mucosa microsomes, [1-14C]-oleoyl CoA, cholesteryl oleate production); assay type: biochemical, rabbit; settings: concentration 10^-5M; inhibition of cholesteryl oleate production vs control
Description: A high cholesterol feed [a feed added with cholesterol (1%), Clea Japan, Inc.] was fed to male Japanese white rabbits weighing 2-2.5 kg at 100 g per day and the rabbits were bred for 4 weeks. The rabbits were killed by bleeding under anesthesia and small intestine was removed. The mucous membrane of small intestine was peeled, collected and homogenated. The homogenate was centrifuged at 4° C. and 10,000 rpm for 15 min. The obtained supernatant was further centrifuged at 4° C. and 41,000 rpm for 30 minutes to give microsomal fractions. Using this microsomal suspension as an enzyme sample, dimethyl sulfoxide (DMSO, 5 μl) or a test compound dissolved in DMSO (test compound solution, 5 μl), and a reaction substrate [1-^14C]-oleoyl CoA were added to a reaction buffer. After incubation at 37° C. for 5 minutes, a chloroform-methanol mixture was added to stop the reaction. Water was added thereto and mixed, and chloroform layer was separated. The solvent was evaporated to dryness, and the residue was dissolved in hexane. The mixture was subjected to thin layer chromatography using a silica gel plate. The spots of cholesteryl oleate on the silica gel plate were scraped, and quantitatively assayed on a liquid scintillation counter. The ACAT inhibitory activity of the test compound was expressed as a proportion (%) of inhibition of cholesteryl oleate, namely, the proportion of inhibition of cholesteryl oleate production as compared to control.

plasma = assay: Plasma lipoperoxidation inhibitory effect (copper sulfate, malondialdehyde by thiobarbituric acid method); assay type: biochemical, rabbit; settings: concentration 10^-5M; 37°C, 3 hours; malondialdehyde production inhibitory ratio
Description: Plasma Lipoperoxidation Inhibitory Effect
The blood was taken from male Japanese white rabbits weighing 2-2.5 kg under anesthesia and heparinized plasma was separated by a conventional method. To the plasma (2.0 ml) was added DMSO or a solution (20 μl, final concentration 10^−5 M) of test compound dissolved in DMSO, and aqueous copper sulfate solution (final concentration 5 mM) was added immediately thereafter. The mixture was incubated at 37° C. for 3 hours. After the completion of the incubation, 20% trichloroacetic acid was added to stop the reaction. Then, the mixture was centrifuged at 4° C., 4,500 rpm for 15 minutes. The lipoperoxide in the supernatant thus obtained was assayed as malondialdehyde upon color development by thiobarbituric acid method. The activity of the test compound was expressed as malondialdehyde production inhibitory ratio (%), namely, the proportion of inhibition of production of malondialdehyde as compared to control.

CCCCCCN1CCc2c(C)cc(C)c(NC(=O)C(C)(C)COCC)c21 [Example 34]
Result of Exp. Ex. 3: LDL peroxidation inhibition (LDL): 82.9%
Result of Exp. Ex. 2: reduction of serum total cholesterol (Male Wister rats; dose 30 mg/kg/day): 50.2 ** %
Result of Exp. Ex. 1: ACAT inhibition (ACAT): 91.0 ** %
Result of Exp. Ex. 4: plasma lipoperoxidation inhibition (plasma): 89.8%

CC(C)(Sc1cc(C(C)(C)C)c(O)c(C(C)(C)C)c1)Sc1cc(C(C)(C)C)c(O)c(C(C)(C)C)c1 [Probucol, 4,4′-isopropylidenedithiobis(2,6-di-t-butylphenol), reference compound]
Result of Exp. Ex. 3: LDL peroxidation inhibition (LDL): 89.4%
Result of Exp. Ex. 2: reduction of serum total cholesterol (Male Wister rats; dose 10 mg/kg/day): 7.3 * %
Result of Exp. Ex. 1: ACAT inhibition (ACAT): 3.4 ** %
Result of Exp. Ex. 4: plasma lipoperoxidation inhibition (plasma): 87.5%
